Data: patent US20260217776A1, “COMPOUND WITH ANTITUMOR ACTIVITY, COR[…] AND COR[…]” (priority 2023, published 2026)
Like-named read-outs stand apart in the source and are kept apart here. Bridge positions count the residues as written; N and C are the ends. Peptide text beside a SMILES is read from it.

Columns and labels:
[1] = system: KB31 human epidermoid carcinoma cell line; assay: apoptotic activity assay (BD cell viability kit); type: cell-based; conditions: peptide 150 μM
Protocol: (§1) The same cell lines were used to verify the apoptotic activity of the peptide, providing the same treatment and the same negative controls. The percentage of apoptotic cells was determined using a BD™ cell viability kit (BD Biosciences), following the manufacturer's instructions. The results are expressed as average values in percentages taking into account the standard error of the mean (SEM).

[2] = system: normal dermal fibroblasts (NDFa); assay: apoptotic activity assay (BD cell viability kit); type: cell-based; conditions: NDFa line, peptide 150 μM
Protocol: as §1

[3] = system: immortalized human keratinocytes (HACAT); assay: apoptotic activity assay (BD cell viability kit); type: cell-based; conditions: HACAT line, peptide 150 μM
Protocol: as §1

[4] = system: KB31 human epidermoid carcinoma cell line; conditions: for cell viability: KB31 line, peptide 150 μM, untreated 100%
Protocol: (§2) The cytotoxic activity assays were performed using a […] human epidermoid carcinoma cell line (American Type Culture Collection) and, as control, non-tumor cell lines of normal dermal fibroblasts (NDFa) and immortalized human keratinocytes (HACAT).
(§3) The used cells were placed in culture dishes (Corning®) and treated with the peptide (at a concentration of 150 μM) for 1 day and 6 days. In parallel, the same lines were prepared, without being treated with the peptide, as a negative control.
(§4) The analyzes were performed with a resazurin-based cytotoxicity assay (Sigma Aldrich) and a trypan blue exclusion assay.

[5] = in vitro
Protocol: as §2, §3, §4

[6] = human, immortalized keratinocytes (HACAT)
[7] = normal dermal fibroblasts (NDFa)

Compound: CC(C)C[C@@H]1NC(=O)[C@H](CC(=O)O)NC(=O)[C@H](CC(N)=O)NC(=O)[C@H](CCCCN)NC(=O)[C@H](CCCNC(=N)N)NC(=O)CNC(=O)[C@H](CCC(=O)O)NC(=O)[C@H](Cc2c[nH]cn2)NC(=O)CNC(=O)[C@H](CCCNC(=N)N)NC(=O)[C@H](CCC(=O)O)NC(=O)[C@H](CO)NC(=O)[C@H](CC(C)C)NC(=O)[C@H]([C@@H](C)O)NC(=O)[C@H](CC(C)C)NC(=O)[C@H](CC(C)C)NC(=O)[C@@H]2CCCN2C(=O)[C@@H](NC(=O)[C@@H](N)CO)CSSC[C@@H](C(=O)N[C@@H](CCCNC(=N)N)C(=O)O)NC(=O)[C@H](CCC(=O)O)NC(=O)[C@H](C(C)C)NC(=O)[C@H](CCCCN)NC(=O)[C@H](CCCCN)NC1=O [peptide] (H-SCPLLTLSERGHEGRKNDLKKVECR-OH; disulfide 2-24; N-terminus assumed)
- apoptosis (percentage of apoptotic cells) ([1]; 1 day): less than 5%
- apoptosis (percentage of apoptotic cells) ([1]; 6 days, negative control just over 10%): more than 50%
- apoptosis (percentage of apoptotic cells) ([2]; 1 day): less than 5%
- apoptosis (percentage of apoptotic cells) ([2]; 6 days): less than 5%
- apoptosis (percentage of apoptotic cells) ([3]; 1 day): less than 5%
- apoptosis (percentage of apoptotic cells) ([3]; 6 days): less than 5%
- cell viability ([4]; 1 day): 77%
- cell viability ([4]; 6 days): approximately 45%
- selectivity toward tumor cells ([4]; KB31 tumor cells versus non-tumor NDFa and HACAT, cytotoxic and apoptotic assays): good selectivity toward tumor cells
- viability at 1 day, 150 μM [5, 6]: ~85%
- viability at 6 days, 150 μM [5, 6]: ~85%
- viability at 1 day, 150 μM [5, 7]: ~80%
- viability at 6 days, 150 μM [5, 7]: ~80%
